Measured values reported in US6903104B2, “Indol-3-YL-2-oxoacetamide compounds and methods of use thereof” (National Health Research Institutes, priority 2001, dated 2005).

How the values were obtained:
[1] = test system: prostate PC3 cancer cells; assay: In vitro cytotoxicity MTS assay, prostate PC3; format: cell-based, human; details: 72 hours
Experimental: (§1) A panel of human cancer cells, gastric NUGC3 and HR, nasopharyngeal HONE1, hepatocellular HEP G2 and HA-22T, colorectal DLD1, lung A549, prostate PC3, breast MCF7 and its adriamycin-resistant MCF7/ADR subline, uterus MES-SA and its adriamycin-resistant MES-SA/Dx5 subline, is purchased from Food Industry Research and Development Institute, Hsinchu, Taiwan R.O.C. or American Type Culture Collection, Manassas, Va. U.S.A., are used in in vitro cytotoxicity assays. The human cells are seeded at a cell density of 3000 or 4500 cells/100 μl/well in 96-well flat-bottom plates and incubated for 24 hours at 37° C. in a 5% CO2 incubator. The testing compounds are dissolved in dimethyl sulfoxide (DMSO) and further diluted into the culture medium for treatments of human cancer cells in vitro. The drug-containing media has a final DMSO concentration of ≦0.3%. The compounds of this invention are prepared in culture media for testing at a range of concentrations from 10, 1, 0.1, 0.01 to 0.001 μM. Each compound solution is (200 μl/well in duplicate) in the cell plates and is treated for 72 hours at 37° C., 5% CO2 in an incubator. Actinomycin D at 5 μM and 0.3% DMSO are used as the positive and vehicle controls, respectively. A colorimetric assay using 3-(4,5-dimethylthiazol-2-yl)-5-(3-carboxymethoxyphenyl)-2-(4-sulfophenyl)-2H-tetrazolium (MTS) and phenazine methosulfate (PMS) is used to determine the potency of the compounds. This assay measures cell viability based on the cellular activity in conversion of a tetrazolium salt into a colored soluble formazan product. The optical density (OD) values are measured at 490 nm with a 1420 multilabel counter VICTOR® from Wallac, Turku, Finland. All of the measured values are subtracted with that of the blank control wells without cells before further calculations. The efficacy data are expressed as a percentage normalized to the vehicle controls as calculated in the following formulae. Inhibitory potency (% of vehicle control)=[(OD490compound−OD490blank)/(OD490vehicle−OD490blank)]×100%. The concentration (IC50) of a test compound that inhibits 50% of the cellular activity is determined.

lung A549 cancer cells = assay: In vitro cytotoxicity MTS assay, lung A549; format: cell-based, human; details: 72 hours
Experimental: as §1

[2] = test system: murine leukemic P388 cells; assay: In vivo anticancer activity, murine leukemic P388 model; design: species or system DBA/2J mice; details: P388-inoculated mice; for increase of life span: P.O., daily, 4×; for activity in the increase of life span (dose-response): oral
Experimental: The in vivo anticancer activities of the compounds are evaluated by the following murine leukemic P388 model. Inbred female DBA/2J mice of 4-5 week-old were purchased from the Charles River Laboratories Inc., Wilmington, Mass., USA and the National Laboratory Animals Breeding and Research Center, Taipei, Taiwan, ROC. Murine leukemic P388 cells are purchased from the Japanese Collection of Research Bioresources, Japan. P388 cells are cultured and propagated in RPMI1640 medium supplemented with 50 μM 2-mercaptoethanol and 10% fetal bovine serum. Mice at the age of 6 weeks were grouped as the treatment, negative control and positive control groups at 7 to 8 mice per group. All mice are intravenously inoculated with the P388 cells at one million per mouse one day before the treatments initiated. Compounds of this invention are dissolved in dimethyl sulfoxide (DMSO) and then diluted in 0.5% carboxymethyl cellulose with the final concentration of DMSO less than 0.5%. Different treatment groups are orally given (P.O.), respectively, with compounds of different doses for a pharmacological dose-response relationship. Mice of the negative control group are treated with the dosing vehicle, 0.5% carboxymethyl cellulose. Doxorubicin of the maximal tolerated dose, 10 mg/kg, is given intravenously as an experimental positive control. The cancer cell-inoculated animals are monitored twice daily. The time on which 50% of the P388-inoculated mice is still surviving is defined as the medium survival time and is used to calculate the percentage (normalized to the medium survival time of the control group) of increased in life span after treatment, which is then served as the index of treatment response.

[3] = test system: human colorectal SW480 tumor xenograft; assay: Antitumor activity, human colorectal SW480 tumor xenograft; format: in vivo, athymic nude mice
Experimental: Human colorectal SW480 cancer cells were subcutaneously implanted into the young male athymic nude mice at 1 million cells per mouse. The treatment schedule of 200 mg/kg daily oral administration for 6 weeks was initiated at the time which the tumor size reached 50˜100 mm^3. Compound was orally gavaged to the nude mice subcutaneously bearing human colorectal SW480 tumor xenograft based on the treatment schedule. The tumor size and body weight of the animals were monitored twice a week through out the 70-day period of observation. The tumor growth was suppressed by the daily oral treatments of compound 56. Tumor sizes of the treated and vehicle control groups were compared at the end of 70-day observation. The size of tumor mass subcutaneously implanted in the nude mice for the treated group was reduced to 26% compared to that of the vehicle control group at the end of the observation period.

gastric HR cancer cells = assay: In vitro cytotoxicity MTS assay, gastric HR; format: cell-based, human; details: 72 hours
Experimental: as §1

Compound | IC50 [1] [nM] | IC50 (lung A549 cancer cells) [nM] | increase of life span ([2]; 25 mg/kg) [%] | increase of life span ([2]; 50 mg/kg) [%] | increase of life span ([2]; 100 mg/kg) [%] | increase of life span ([2]; 200 mg/kg) [%] | activity in the increase of life span (dose-response) [2] | size of tumor mass compared to that of the vehicle control group ([3]; 200 mg/kg daily oral for 6 weeks, end of 70-day observation) [%] | tumor growth ([3]; 200 mg/kg daily oral treatments) | toxicity as noted by loss of the body weight ([3]; oral multiple dosing, 200 mg/kg daily for 6 weeks) | IC50 (gastric HR cancer cells) [nM]
Cc1cc(Cn2cc(C(=O)C(=O)Nc3cc(C)ns3)c3ccccc32)on1 [Compound 56] | 628 | 557 | 26 ± 27 | 57 ± 20 | 63 ± 17 | 100 ± 21 | dose-dependent activity | 26 | suppressed | no obvious toxicity | 8
Cc1cc(NC(=O)C(=O)c2cn(Cc3ccc(C#N)cc3)c3ccccc23)sn1 [Compound 25] | 689 | 545 | 14 ± 1 | 27 ± 3 | 20 ± 8 | 46 ± 24 | dose-dependent activity | – | – | – | 340
